In data set [1] the test system is cytochrome P450 1A2 (CYP1A2). The class given is in vitro ADME. The settings on record: human hepatocytes. The method, then:
In order to evaluate the induction of CYP enzymes in human hepatocytes by the compounds prepared in the above examples at 10 μM, Omeprazole (positive control) and the compound prepared in Example 32 (control compound 2) disclosed in patent application. WO2020/127685A1 were used as controls.

The next data set concerns the target T1, human IL-17A (Homo sapiens, UniProt Q16552).
T1 construct: purchased Sino Biological Inc. 12047-H07B
T1 sequence (Q16552 24-155): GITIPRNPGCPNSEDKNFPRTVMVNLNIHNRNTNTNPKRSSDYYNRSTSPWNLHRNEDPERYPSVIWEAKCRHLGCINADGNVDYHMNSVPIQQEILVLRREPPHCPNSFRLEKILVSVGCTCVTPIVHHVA
Put plainly: IL-17A enzyme-linked immunosorbent assay (competitive ELISA, IL-17A/IL-17R binding). Here is the method:
The inhibition of receptor-ligand binding by human IL-17A inhibitors was quantified by competitive ELISA. 0.2 μg/mL of IL-17A (Sino Biological Inc. Cat #12047-H07B) was added in a 96-well plate at 100 μl per well for incubation for 30 min under 37° C. The 96-well plate was washed with PBST (PBS, 0.05% Tween-20) at 200 μl per well for 4 times, and then added with 200 μl of 5% skim milk and placed on a shaker for incubation at 25° C. for 30 min. The compound to be tested was prepared at 100× concentration ranging from 0.003 μM to 30 μM. After washed with PBST (PBS, 0.05% Tween-20) 4 times, the plate was added with 89 μl of PBST and 1 μl of the compound to be tested at 100× concentration followed by uniformly mixing and pre-incubation at 25° C. for 10 min. Then the plate was added with 10 μl of 16 nM IL-17R, and incubated on a shaker at 25° C. for 30 min. After washed for 4 times, the plate was added with 100 μl of anti-Fc-tag horseradish peroxidase (HRP)-conjugated antibody, and incubated on a shaker at 25° C. for 30 min. After washed 4 times, the plate was added with 100 μl of 3,3′, 5,5″-tetramethylbenzidine (TMB) substrate solution, and incubated at 25° C. in the dark. Then the plate was added with 20% HCl, followed by detection of the light absorption value at a wavelength of 450 nm by a microplate reader. The compounds prepared in the above examples were tested for human IL-17A inhibitory activity according to the above method.

The next data set concerns the target T2, human IL-17A protein (Homo sapiens, UniProt Q16552).
T2 construct: purchased R&D 317-ILB
T2 sequence (Q16552 20-155 limits assumed): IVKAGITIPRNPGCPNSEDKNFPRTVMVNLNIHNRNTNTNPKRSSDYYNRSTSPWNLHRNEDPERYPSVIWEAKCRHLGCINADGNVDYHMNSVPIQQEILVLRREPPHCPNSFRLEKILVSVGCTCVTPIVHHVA
Kind of data set: Inhibition of chemokine GROα/CXCL1 generation induced by human IL-17A protein in HT-29 cell. Format: cell-based. The method, then:
HT-29 (Zhongyuan Gongchuang Technology Co., Ltd. of Chengdu, Sichuan) was added to a 96-well plate at 5×10^4 cells/well, and cultured overnight in a incubator at 37° C. A mixture of 30 ng/mL of human IL-17A protein (R&D, #317-ILB) and IL-17A small molecule inhibitors with gradient concentrations or 0.3 μg/mL of positive control IL-17A antibody (R&D, #AF-317-NA) was incubated at 37° C. for 1 h, and then added to the above-mentioned 96-well plate, and incubated with HT-29 cells at 37° C. for 48 hours. Then the GROα level in the cell culture supernatant was detected by an ELISA kit (Cisbio, #62HCXC1PEG) of the GROα.
According to the methods described in Experimental Examples 1 and 2, the compounds prepared in the above-mentioned examples were subjected to the experiment on inhibition of chemokine GROα/CXCL1 generation induced by human IL-17A protein in HT-29 cell.

Data set [2] in a line: Pharmacokinetic properties in mice (intravenous injection/oral gavage). The class given is in vivo. The following applies: oral bioavailability. The method, then:
(§1) In order to investigate the pharmacokinetic properties of the compound in rats, 3 rats were administered with the compounds at corresponding doses by intravenous injection/oral gavage, respectively. The anticoagulated whole blood of the rats were collected and the plasma was separated at 5 min, 15 min, 30 min, 1 h, 2 h, 4 h, 8 h, 24 h after administrated. In order to investigate the pharmacokinetic properties of the compound in mice, 6 mice were administered with the compound at the corresponding dose by intravenous injection/oral gavage. The mice administered by each route were divided into A group and B group. The anticoagulated whole blood was collected from the mice in group A at 5 min, 30 min, 2 h, and 8 h after the administration, and the anticoagulated whole blood was collected from the mice in group B at 15 min, 1 h, 4 h, and 24 h after the administration, and plasma was separated. In order to investigate the pharmacokinetic properties of dogs, two groups of 4 beagle dogs (2 males+2 females) were administered with the compound at corresponding doses by intravenous injection/oral gavage. The anticoagulated whole blood of each dog was collected, and the plasma was separated at 2 h, 4 h, 8 h, 12 h, 24 h, 36 h after the administration.
(§2) Plasma concentrations of compounds were determined by standard curve calibration by LC-MS. […]

Data set [3] can be described thus: Pharmacokinetic properties in rats (intravenous injection/oral gavage). Format: in vivo. The settings on record: oral bioavailability. The method, then:
as §1, §2

The nature of data set [4]: Pharmacokinetic properties in dogs (intravenous injection/oral gavage). The class given is in vivo. The following applies: oral bioavailability, beagle dogs. The method, then:
as §1, §2

Data set [5] has as its system imiquimod-induced psoriasis mouse model. Kind of data set: Pharmacodynamic test on an imiquimod cream-induced psoriasis model in mice. Format: in vivo, C57BL/6N mouse. Here is the method: Each 10-week-old female C57 black 6 (C57BL/6N) mouse was shaved to approximately 2.5×4 cm on the back, which the imiquimod (IMQ, Imiquimod) cream continuously applies from the day 1-4, so as to establish a psoriasis model. Each mouse was administrated with the compound 51 prepared in this application by gavage (3, 10, 30 mg/kg) once a day, and administrated with IL-17A antibody solution by intraperitoneal injection (Ab, 2 mg/kg) every other day, or administrated with dexamethasone solution by intraperitoneal injection (10 mg/kg) once a day. […] On day 1 and day 5 of the experiment, the skin thickness of the mice was measured to investigate the skin thickening induced by IMQ.
On day 5 of the experiment, the skins of mice in each group were collected, the mRNA expression level of IL6 was detected by quantitative reverse transcription polymerase chain reaction (RT-qPCR) test. […] On day 5 of the experiment, the plasma of mice in each group was collected, and the IL6 protein level was measured.
On day 5 of the model, the skin samples were collected from the back of each mouse. The samples were fixed in 4% paraformaldehyde, and stained with hematoxylin-eosin (HE) to investigate the protective effect of compound 51 on skin pathological damage.

Like-named read-outs stand apart in the source and are kept apart here.

As to `COc1ccc2[nH]c([S+]([O-])Cc3ncc(C)c(OC)c3C)nc2c1` (centres unmarked) [Omeprazole, reference compound], in data set [1] (concentration 25/750 μM (positive control)), the “mRNA Expression level Fold of induction 1A2” value is listed as 12.8.
Usually IC50 stands for the point on the concentration scale where inhibition reaches its midpoint. Low values mean higher potency, high ones lower potency. As for `Cc1nonc1C(=O)N[C@H](C(=O)Nc1ccc(-c2c(C)n[nH]c2C)nc1)C(C1CC1)C1(C)CC1` (some centres unmarked) [Compound 55], the IC50 at human IL-17A turned out to be 53 nM; against human IL-17A protein, 866 nM.
Take `Cc1n[nH]c(C)c1-c1ccc(NC(=O)[C@@H](NC(=O)c2ccnn2C(C)C)C(C2CC2)C2CC2)cn1` [Compound 40]: the results for the 50% inhibitory concentration (IC50) at human IL-17A and against human IL-17A protein were 117 nM and 781 nM, respectively.
Take `Cc1n[nH]c(C)c1-c1ncc(NC(=O)[C@@H](NC(=O)c2ccnn2C(C)C)C(C2CC2)C2CC2)cc1F` [Compound 51]: the half-inhibitory concentration (IC50) turned out to be 42 nM at human IL-17A and 224 nM against human IL-17A protein. Further, the “F % (Mice)” value in data set [2] turned out to be 56%. The “F % (Rats)” value in data set [3] was 46%. For the same molecule, the “F %(Dogs)” value in data set [4] is 58%. For the same molecule, the “Note 1A2 (CYP1A2 induction)” value was “Non-” in data set [1] (10 μM) and “no inducing effect” in data set [1] (10 μM, listed as compound 51). Further, the “mRNA Expression level % of the positive control 1A2” value in data set [1] (10 μM) was 2.20%. In addition, in data set [1] (10 μM), the “mRNA Expression level Fold of induction 1A2” value is listed as 1.26. Besides, the “skin thickening induced by IMQ (skin thickness day 1 and day 5)” value in data set [5] (compound 51 gavage 3, 10, 30 mg/kg once a day, antibody i.p. 2 mg/kg every other day, FIG. 1B) is “reversed the skin thickening caused by IMQ at different levels”. The “skin pathological damage (HE staining)” value in data set [5] (day 5, 3, 10 and 30 mg/kg, FIGS. 2A-G) is “may inhibit the infiltration and damage of skin inflammatory cells induced by IMQ at different levels”. In addition, in data set [5] (day 5, gavage 3, 10, 30 mg/kg, FIG. 1C), the “mRNA expression level of IL6 in skin (RT-qPCR)” value was “dependently reversed the up-regulation of IL6 expression level”. Further, the “IL6 protein level in plasma” value in data set [5] (day 5, gavage 3, 10, 30 mg/kg, FIG. 1D) was “dependently inhibited the increase of IL6 protein level in the plasma”. In addition, the “AUC of the psoriasis area and severity index (PASI) scoring curve (skin inflammation)” value in data set [5] (gavage 3, 10, 30 mg/kg once a day, FIG. 1A) is on record as “reduced the level of skin inflammation induced by IMQ”.
On to `Cc1n[nH]c(C)c1-c1ccc(NC(=O)[C@@H](NC(=O)c2ccnn2C(C)C)C(C2CC2)C2(C)CC2)cn1` (some centres unmarked) [Compound 56], for which the values for the IC50 at human IL-17A and against human IL-17A protein were 35 nM and 87 nM, respectively.
Turning to `Cc1nonc1C(=O)N[C@H](C(=O)Nc1cnc(-c2c(C)n[nH]c2C)c(F)c1)C(C1CC1)C1(C)CC1` (some centres unmarked) [Compound 59], the figures for the half-maximal inhibitory concentration (IC50) on human IL-17A and on human IL-17A protein were 87 nM and 4680 nM, respectively.

Source of the values: patent publication US12637430B2, “Interleukin-17 (IL-17) inhibitors” (priority 2020, dated 2026).
